Measurements from ChEMBL document CHEMBL4130444, “1,4-Naphthoquinones as inhibitors of Itch, a HECT domain-E3 ligase, and tumor growth suppressors in multiple myeloma” (Eur J Med Chem, 2017).
Activity calls are given as the source filed them. The calls are words filed in the database; no cut-off is given here.

Columns and labels:
PC-6 = test: Antiproliferative activity against human PC6 cells incubated for 48 hrs by SRB assay; format: functional; settings: PC-6, 48 h
MDA-MB-231 = test: Antiproliferative activity against human MDA-MB-231 cells incubated for 48 hrs by SRB assay; format: functional; settings: MDA-MB-231, 48 h
Homo sapiens [1] = species: Homo sapiens; test: Inhibition of UBE1/UbcH7/Parkin/p38/JTV-1 (unknown origin) assessed as protein activity at […] by electrochemiluminescence based ubiquitin profiler panel assay; design: scale not given: the % may be the effect or the level left
ASPC1 = test: Antiproliferative activity against human AsPC1 cells incubated for 48 hrs by SRB assay; format: functional; settings: ASPC1, 48 h
RPMI-8226 [2] = test: Reduction of Itch protein expression in human RPMI8226 cells at 10 uM by Western blot; format: functional, cell-based
Homo sapiens [3] = species: Homo sapiens; test: Inhibition of UBE1/UbcH4/c-Cbl/Src (unknown origin) assessed as protein activity at […] by electrochemiluminescence based ubiquitin profiler panel assay; design: scale not given: the % may be the effect or the level left
Mus musculus [4] = test: Toxicity in human RPMI8226 cells xenografted SCID nude mouse assessed as effect on body weight at 25 mg/kg, po dosed daily for 45 days; format: organism-based; settings: in vivo, 1080 h
[5] = Antiproliferative activity against human ZR-75 cells incubated for 48 hrs by SRB assay; format: functional; settings: ZR75, 48 h
Homo sapiens [6] = species: Homo sapiens; test: Inhibition of UBE1/UbcH7/Parkin/Parkin(Auto) (unknown origin) assessed as protein activity at […] by electrochemiluminescence based ubiquitin profiler panel assay; design: scale not given: the % may be the effect or the level left
Mus musculus [7] = test: Toxicity in human RPMI8226 cells xenografted SCID nude mouse assessed as induction of adverse events at 50 mg/kg, po dosed daily for 45 days; format: organism-based; settings: in vivo, 1080 h
Homo sapiens [8] = species: Homo sapiens; test: Inhibition of UBE1/UbcH4/MDM2/MDM2(Auto) (unknown origin) assessed as protein activity at […] by electrochemiluminescence based ubiquitin profiler panel assay; design: scale not given: the % may be the effect or the level left
RPMI-8226 [9] = test: Antiproliferative activity against human RPMI8226 cells incubated for 48 hrs by SRB assay; format: functional, cell-based; settings: RPMI-8226, 48 h
REH = test: Antiproliferative activity against human REH cells incubated for 48 hrs by SRB assay; format: functional
Homo sapiens [10] = species: Homo sapiens; test: Inhibition of UBE1/UbcH13/Uev1A/CHIP/Hsp70 (unknown origin) assessed as protein activity at […] by electrochemiluminescence based ubiquitin profiler panel assay; design: scale not given: the % may be the effect or the level left
[11] = Antiproliferative activity against human hepatocytes incubated for 48 hrs by SRB assay; format: cell-based, Hepatocyte
[12] = Antiproliferative activity against human 33HJ-JA1 cells incubated for 48 hrs by SRB assay; format: functional
PC-3 = test: Antiproliferative activity against human PC3 cells incubated for 48 hrs by SRB assay; format: functional; settings: PC-3, 48 h
HT-29 = test: Antiproliferative activity against human HT-29 cells incubated for 48 hrs by SRB assay; format: functional; settings: HT-29, 48 h
A-431 = test: Antiproliferative activity against human A431 cells incubated for 48 hrs by SRB assay; format: functional; settings: A-431, 48 h
Homo sapiens [13] = species: Homo sapiens; test: Inhibition of UBE1/UbcH4/SCFbTrCP1/b-catenin (unknown origin) assessed as protein activity at […] by electrochemiluminescence based ubiquitin profiler panel assay; design: scale not given: the % may be the effect or the level left
Homo sapiens [14] = species: Homo sapiens; test: Inhibition of UBE1/UbcH4/c-Cbl/Kit (unknown origin) assessed as protein activity at […] by electrochemiluminescence based ubiquitin profiler panel assay; design: scale not given: the % may be the effect or the level left
BXPC-3 = test: Antiproliferative activity against human BxPC3 cells incubated for 48 hrs by SRB assay; format: functional; settings: BXPC-3, 48 h
Homo sapiens [15] = species: Homo sapiens; test: Inhibition of UBE1/UbcH4/VHL/HIF-1a (unknown origin) assessed as protein activity at […] by electrochemiluminescence based ubiquitin profiler panel assay; design: scale not given: the % may be the effect or the level left
Homo sapiens [16] = species: Homo sapiens; test: Inhibition of UBE1/UbcH5c/MDM2/CK1d/p53 (unknown origin) assessed as protein activity at […] by electrochemiluminescence based ubiquitin profiler panel assay; design: scale not given: the % may be the effect or the level left
Hep 3B2 = test: Antiproliferative activity against human Hep3B cells incubated for 48 hrs by SRB assay; format: functional
U-87 MG = test: Antiproliferative activity against human U87MG cells incubated for 48 hrs by SRB assay; format: functional, U-87MG ATCC
Homo sapiens [17] = species: Homo sapiens; test: Inhibition of UBE1/UbcH3/SCFbTrCP1/b-catenin (unknown origin) assessed as protein activity at […] by electrochemiluminescence based ubiquitin profiler panel assay; design: scale not given: the % may be the effect or the level left
Homo sapiens [18] = species: Homo sapiens; test: Inhibition of UBE1/UbcH13/Uev1A/CHIP/p53 (unknown origin) assessed as protein activity at […] by electrochemiluminescence based ubiquitin profiler panel assay; design: scale not given: the % may be the effect or the level left
[19] = test system: KATO III stomach cancer cell line; test: Antiproliferative activity against human KATO III cells incubated for 48 hrs by SRB assay; format: functional
Homo sapiens [20] = species: Homo sapiens; test: Inhibition of UBE1/UbcH3/SCFSkp2/Cks1/p27 (unknown origin) assessed as protein activity at […] by electrochemiluminescence based ubiquitin profiler panel assay; design: scale not given: the % may be the effect or the level left
ACHN = test: Antiproliferative activity against human ACHN cells incubated for 48 hrs by SRB assay; format: functional
Homo sapiens [21] = species: Homo sapiens; test: Inhibition of UBE1/UbcH3/SCFFbw7/Cyclin E1 (unknown origin) assessed as protein activity at […] by electrochemiluminescence based ubiquitin profiler panel assay; design: scale not given: the % may be the effect or the level left

- GI50 (MDA-MB-231): 2900 nM
- Activity (Homo sapiens [1]): 72%
- GI50 (ASPC1): 4600 nM
- Activity (Homo sapiens [3]): 89%
- Activity (Homo sapiens [6]): 65%
- Activity (Homo sapiens [8]): 92%
- IC50 (RPMI-8226 [9]): 2600 nM
- Activity (Homo sapiens [10]): 93%
- GI50 (PC-3): 2500 nM
- GI50 (HT-29): 3800 nM
- GI50 (A-431): 1200 nM
- Activity (Homo sapiens [13]): 68%
- Activity (Homo sapiens [14]): 86%
- GI50 (BXPC-3): 1200 nM
- Activity (Homo sapiens [15]): 96%
- Activity (Homo sapiens [16]): 75%
- GI50 (U-87 MG): 2500 nM
- Activity (Homo sapiens [17]): 101%
- Activity (Homo sapiens [18]): 52%
- GI50 [19]: 2400 nM
- Activity (Homo sapiens [20]): 85%
- GI50 (ACHN): 2700 nM
- Activity (Homo sapiens [21]): 104%
SMILES: O=C(Nc1ccncc1)c1ccc(CNC2=C(Cl)C(=O)c3ccccc3C2=O)cc1
- GI50 (PC-6): 1800 nM
- Activity (RPMI-8226 [2]): Active
- Activity (Mus musculus [4]): Non-Toxic
- GI50 [5]: > 5000 nM
- Activity (Mus musculus [7]): Non-Toxic
- GI50 (REH): 2800 nM
- GI50 at 48 h [11]: 30000 nM
- GI50 [12]: 1900 nM
- GI50 (Hep 3B2): 1400 nM
